Target: T1, recombinant human GST-SYK (Homo sapiens, UniProt P43405)
T1 construct: purchased Carna Biosciences 08-176
Test: Homogeneous Time-Resolved Fluorescence (HTRF) assay for the recombinant human Syk enzyme
Type: biochemical
Conditions: HTRF assay, recombinant human GST-SYK; IC50 given as class symbols; read-out: rhSYK Activity
In short: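 Phosphotyrosine product from a biotinylated Syk substrate peptide was detected by HTRF (europium antibody/SA-APC, read after 30 min) following a 45-minute room-temperature reaction at 25 μM ATP, with […] preincubated 10 minutes with inhibitor.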

Structure (SMILES) | IC50
Cc1cc(Nc2nccc(C(F)(F)F)n2)cc(-c2cncc(C(C)(O)CO)c2)c1 (stereo not shown) [Example 9.68, 2-[5-(3-methyl-5-{[4-(trifluoromethyl)pyrimidin-2-yl]amino}phenyl)pyridin-3-yl]propane-1,2-diol] | < 100 nM
Cc1cc(Nc2nccc(C(F)(F)F)n2)cc(-c2cncc([C@]3(O)CC[C@@H](C(=O)O)CC3)c2)c1 [Example 9.69, cis-4-hydroxy-4-[5-(3-methyl-5-{[4-(trifluoromethyl)pyrimidin-2-yl]amino}phenyl)pyridin-3-yl]cyclohexanecarboxylic acid] | < 100 nM
Cc1cc(Nc2nccc(C(F)(F)F)n2)cc(-c2cncc(C(C)(C)O)c2)c1 [Example 9.71, 2-[5-(3-methyl-5-{[4-(trifluoromethyl)pyrimidin-2-yl]amino}phenyl)pyridin-3-yl]propan-2-ol] | < 100 nM
Cc1cc(Nc2nccc(C(F)(F)F)n2)cc(-c2cncc(C(C)(O)C(C)O)c2)c1 (stereo not shown) [Example 9.73, 2-[5-(3-methyl-5-{[4-(trifluoromethyl)pyrimidin-2-yl]amino}phenyl)pyridin-3-yl]butane-2,3-diol] | < 100 nM
Cc1cc(Nc2nccc(C3CC3)n2)cc(-c2cncc(C(O)(CO)CO)c2)c1 [Example 9.74, 2-(5-{3-[(4-cyclopropylpyrimidin-2-yl)amino]-5-methylphenyl}pyridin-3-yl)propane-1,2,3-triol] | 1000 to 10000 nM
Cc1cc(Nc2nccc(C)n2)cc(-c2cncc(C(O)(CO)CO)c2)c1 [Example 9.75, 2-(5-{3-methyl-5-[(4-methylpyrimidin-2-yl)amino]phenyl}pyridin-3-yl)propane-1,2,3-triol] | 100 to 1000 nM
Cc1cc(Nc2nccc(C(F)(F)F)n2)cc(-c2cncc(C3(O)CCC(O)CC3)c2)c1 (stereo not shown) [Example 9.76, 1-[5-(3-methyl-5-{[4-(trifluoromethyl)pyrimidin-2-yl]amino}phenyl)pyridin-3-yl]cyclohexane-1,4-diol] | < 100 nM
CCOC(=O)C1CCCC(O)(c2cncc(-c3cc(C)cc(Nc4nccc(C(F)(F)F)n4)c3)c2)C1 (stereo not shown) [Example 9.77, ethyl 3-hydroxy-3-[5-(3-methyl-5-{[4-(trifluoromethyl)pyrimidin-2-yl]amino}phenyl)pyridin-3-yl]cyclohexanecarboxylate] | 100 to 1000 nM
Cc1cc(Nc2nccc(C(F)(F)F)n2)cc(-c2cncc(C3(O)COC(C)(C)OC3)c2)c1 [Example 9.78, 2,2-dimethyl-5-[5-(3-methyl-5-{[4-(trifluoromethyl)pyrimidin-2-yl]amino}phenyl)pyridin-3-yl]-1,3-dioxan-5-ol] | 100 to 1000 nM
Cc1cc(Nc2nccc(C(F)(F)F)n2)cc(-c2cncc(C(O)(CO)CO)c2)c1 [Example 9.80, 2-[5-(3-methyl-5-{[4-(trifluoromethyl)pyrimidin-2-yl]amino}phenyl)pyridin-3-yl]propane-1,2,3-triol] | < 100 nM
Cc1cc(Nc2nccc(C(F)(F)F)n2)cc(-c2cncc(C(C)(O)C(F)(F)F)c2)c1 (stereo not shown) [Example 9.81, 1,1,1-trifluoro-2-[5-(3-methyl-5-{[4-(trifluoromethyl)pyrimidin-2-yl]amino}phenyl)pyridin-3-yl]propan-2-ol] | < 100 nM

Further lines, results first:

IC50 | Structure (SMILES)
< 100 nM | Cc1cc(Nc2nccc(C(F)(F)F)n2)cc(-c2cncc([C@]3(O)CC[C@H](C(=O)O)CC3)c2)c1 [Example 9.70, trans-4-hydroxy-4-[5-(3-methyl-5-{[4-(trifluoromethyl)pyrimidin-2-yl]amino}phenyl)pyridin-3-yl]cyclohexanecarboxylic acid]
< 100 nM | CC(=O)C(C)(O)c1cncc(-c2cc(C)cc(Nc3nccc(C(F)(F)F)n3)c2)c1 (stereo not shown) [Example 9.72, 3-hydroxy-3-[5-(3-methyl-5-{[4-(trifluoromethyl)pyrimidin-2-yl]amino}phenyl)pyridin-3-yl]butan-2-one]
< 100 nM | Cc1cc(Nc2nccc(C(F)(F)F)n2)cc(-c2cncc(C3(O)COC3)c2)c1 [Example 9.79, 3-[5-(3-methyl-5-{[4-(trifluoromethyl)pyrimidin-2-yl]amino}phenyl)pyridin-3-yl]oxetan-3-ol]
< 100 nM | Cc1cc(Nc2nccc(C(F)(F)F)n2)cc(-c2cncc(C3(O)CCN(C(N)=O)CC3)c2)c1 [Example 10.1, 4-Hydroxy-4-[5-(3-methyl-5-{[4-(trifluoromethyl)pyrimidin-2-yl]amino}phenyl)pyridin-3-yl]piperidine-1-carboxamide]
< 100 nM | Cc1cc(Nc2nccc(C(F)(F)F)n2)cc(-c2cncc(C3(O)CCN(C(N)=O)C3)c2)c1 (stereo not shown) [Example 10.2, 3-hydroxy-3-[5-(3-methyl-5-{[4-(trifluoromethyl)pyrimidin-2-yl]amino}phenyl)pyridin-3-yl]pyrrolidine-1-carboxamide]
< 100 nM | Cc1cc(Nc2nccc(C(F)(F)F)n2)cc(-c2ccc(C3(O)CCN(C(N)=O)CC3)nc2)c1 [Example 10.3, 4-hydroxy-4-[5-(3-methyl-5-{[4-(trifluoromethyl)pyrimidin-2-yl]amino}phenyl)pyridin-2-yl]piperidine-1-carboxamide]
< 100 nM | Cc1cc(Nc2nccc(C(F)(F)F)n2)cc(-c2ccc(C3(O)CCN(C(N)=O)C3)nc2)c1 (stereo not shown) [Example 10.4, 3-hydroxy-3-[5-(3-methyl-5-{[4-(trifluoromethyl)pyrimidin-2-yl]amino}phenyl)pyridin-2-yl]pyrrolidine-1-carboxamide]
< 100 nM | Cc1cc(Nc2nccc(C(F)(F)F)n2)cc(-c2ccc(C3(O)CCNC(=O)CC3)nc2)c1 (stereo not shown) [Example 11.1, 5-Hydroxy-5-[5-(3-methyl-5-{[4-(trifluoromethyl)pyrimidin-2-yl]amino}phenyl)pyridin-2-yl]azepan-2-one]
100 to 1000 nM | Cc1cc(Nc2nccc(C(F)(F)F)n2)cc(-c2ccc(Oc3ccc(C(N)=O)cc3)nc2)c1 [Example 12.3, 4-{[5-(3-Methyl-5-{[4-(trifluoromethyl)pyrimidin-2-yl]amino}phenyl)pyridin-2-yl]oxy}benzamide]
< 100 nM | Cc1cc(Nc2nccc(C(F)(F)F)n2)cc(-c2ccc(C(C)(O)c3ccc(C(N)=O)cc3)nc2)c1 (stereo not shown) [Example 12.4, 4-{1-hydroxy-1-[5-(3-methyl-5-{[4-(trifluoromethyl)pyrimidin-2-yl]amino}phenyl)pyridin-2-yl]ethyl}benzamide]
< 100 nM | Cc1cc(Nc2nccc(C(F)(F)F)n2)cc(-c2ccc(C(=O)N3CCNC(=O)C3C)nc2)c1 (stereo not shown) [Example 12.5, 3-methyl-4-{[5-(3-methyl-5-{[4-(trifluoromethyl)pyrimidin-2-yl]amino}phenyl)pyridin-2-yl]carbonyl}piperazin-2-one]
< 100 nM | Cc1cc(Nc2nccc(C(F)(F)F)n2)cc(-c2ccc(C(N)=O)nc2)c1 [Example 12.6, 5-(3-methyl-5-{[4-(trifluoromethyl)pyrimidin-2-yl]amino}phenyl)pyridine-2-carboxamide]
< 100 nM | Cc1cc(Nc2nccc(C(F)(F)F)n2)cc(-c2ccc(NCC(=O)NCC(N)=O)nc2)c1 [Example 12.7, N-[5-(3-methyl-5-{[4-(trifluoromethyl)pyrimidin-2-yl]amino}phenyl)pyridin-2-yl]glycylglycinamide]
< 100 nM | Cc1cc(Nc2nccc(C(F)(F)F)n2)cc(-c2ccc(NC3(C(N)=O)CC3)nc2)c1 [Example 12.8, 1-{[5-(3-methyl-5-{[4-(trifluoromethyl)pyrimidin-2-yl]amino}phenyl)pyridin-2-yl]amino}cyclopropanecarboxamide]

Source: patent US9376418B2, “Substituted pyridine spleen tyrosine kinase (SYK) inhibitors” (Merck Sharp & Dohme Corp., priority 2012, dated 2016)
